In ChEMBL document CHEMBL1154528, “Discovery of a novel series of quinoxalines as inhibitors of c-Met kinase” (Bioorg Med Chem Lett, 2009):

Legend:
[1] = Inhibition of Flt at 10 uM; design: scale not given: the % may be the effect or the level left
[2] = target: Vascular endothelial growth factor receptor 2 (Homo sapiens) (UniProt P35968); assay: Inhibition of KDR at 10 uM; design: scale not given: the % may be the effect or the level left
Chain of Vascular endothelial growth factor receptor 2 (Homo sapiens) (P35968 whole entry): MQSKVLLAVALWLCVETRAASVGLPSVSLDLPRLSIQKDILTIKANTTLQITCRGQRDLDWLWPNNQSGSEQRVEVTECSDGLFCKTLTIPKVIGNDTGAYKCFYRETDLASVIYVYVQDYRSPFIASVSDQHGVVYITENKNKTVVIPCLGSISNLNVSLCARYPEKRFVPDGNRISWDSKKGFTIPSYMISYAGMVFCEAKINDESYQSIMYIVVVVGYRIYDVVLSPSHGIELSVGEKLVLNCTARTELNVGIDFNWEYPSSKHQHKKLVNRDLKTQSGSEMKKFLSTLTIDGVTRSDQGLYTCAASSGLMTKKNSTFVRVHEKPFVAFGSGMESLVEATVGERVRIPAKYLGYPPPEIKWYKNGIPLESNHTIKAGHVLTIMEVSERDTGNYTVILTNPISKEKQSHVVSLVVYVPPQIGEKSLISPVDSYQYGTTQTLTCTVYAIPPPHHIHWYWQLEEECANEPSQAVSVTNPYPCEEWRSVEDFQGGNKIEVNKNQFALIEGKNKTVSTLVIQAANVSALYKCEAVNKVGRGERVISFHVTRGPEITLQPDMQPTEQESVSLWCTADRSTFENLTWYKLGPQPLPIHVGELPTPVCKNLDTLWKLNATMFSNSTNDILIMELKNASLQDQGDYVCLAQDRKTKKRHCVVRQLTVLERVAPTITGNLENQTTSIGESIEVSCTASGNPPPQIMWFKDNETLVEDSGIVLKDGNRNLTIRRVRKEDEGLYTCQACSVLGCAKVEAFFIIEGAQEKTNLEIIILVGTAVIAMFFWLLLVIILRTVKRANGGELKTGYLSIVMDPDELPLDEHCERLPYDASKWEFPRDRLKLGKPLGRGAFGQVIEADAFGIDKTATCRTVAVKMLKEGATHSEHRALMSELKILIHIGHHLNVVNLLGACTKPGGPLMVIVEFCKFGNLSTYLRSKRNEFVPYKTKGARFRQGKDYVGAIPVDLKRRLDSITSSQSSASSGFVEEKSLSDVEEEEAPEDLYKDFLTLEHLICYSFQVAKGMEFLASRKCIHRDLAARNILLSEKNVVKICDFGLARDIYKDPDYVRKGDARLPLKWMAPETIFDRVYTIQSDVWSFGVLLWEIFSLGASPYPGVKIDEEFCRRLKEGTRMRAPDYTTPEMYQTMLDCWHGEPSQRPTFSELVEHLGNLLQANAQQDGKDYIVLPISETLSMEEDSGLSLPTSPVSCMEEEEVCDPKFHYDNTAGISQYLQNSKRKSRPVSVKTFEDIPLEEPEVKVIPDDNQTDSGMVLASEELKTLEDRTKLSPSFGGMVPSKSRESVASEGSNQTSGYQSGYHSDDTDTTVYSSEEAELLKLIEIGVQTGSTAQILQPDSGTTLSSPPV

CN1CCN(c2cnc3cc(C(F)(F)F)cc(-c4ccccc4)c3n2)CC1
Activity [1]: < 30%
Activity [2]: < 30%
